Results published in ChEMBL document CHEMBL1155376, “Structure-activity relationships of norepinephrine reuptake inhibitors with benzothiadiazine dioxide or dihydrosulfostyril cores” (Bioorg Med Chem Lett, 2010).

How the values were obtained:
[1] = target: T1, Sodium-dependent serotonin transporter (Homo sapiens, UniProt P31645); test: Inhibition of serotonin uptake at human SERT expressed in human JAR
Target sequence in this assay (P31645 whole entry): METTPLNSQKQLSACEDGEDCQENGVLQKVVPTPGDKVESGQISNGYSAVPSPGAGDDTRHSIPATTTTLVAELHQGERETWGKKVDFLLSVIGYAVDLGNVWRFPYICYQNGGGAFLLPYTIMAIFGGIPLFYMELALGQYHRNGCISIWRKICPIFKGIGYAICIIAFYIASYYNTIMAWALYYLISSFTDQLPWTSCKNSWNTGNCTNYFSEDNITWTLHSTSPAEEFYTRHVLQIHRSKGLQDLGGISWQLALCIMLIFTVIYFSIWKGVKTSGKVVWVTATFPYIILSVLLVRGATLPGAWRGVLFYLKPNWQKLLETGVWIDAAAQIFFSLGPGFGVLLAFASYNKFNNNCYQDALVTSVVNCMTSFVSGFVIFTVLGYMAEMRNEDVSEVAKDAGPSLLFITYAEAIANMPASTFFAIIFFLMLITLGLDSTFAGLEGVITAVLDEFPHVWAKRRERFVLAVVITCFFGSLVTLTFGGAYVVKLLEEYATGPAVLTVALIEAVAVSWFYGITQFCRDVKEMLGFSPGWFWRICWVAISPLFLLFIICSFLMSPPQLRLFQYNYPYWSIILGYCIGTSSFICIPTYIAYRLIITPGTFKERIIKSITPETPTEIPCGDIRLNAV

[2] = target: T2, Sodium-dependent dopamine transporter (Homo sapiens, UniProt Q01959); test: Displacement of [3H]WIN-35428 from human recombinant DAT expressed in CHO cells at 1 uM; assay type: cell-based
T2 sequence (Q01959 whole entry): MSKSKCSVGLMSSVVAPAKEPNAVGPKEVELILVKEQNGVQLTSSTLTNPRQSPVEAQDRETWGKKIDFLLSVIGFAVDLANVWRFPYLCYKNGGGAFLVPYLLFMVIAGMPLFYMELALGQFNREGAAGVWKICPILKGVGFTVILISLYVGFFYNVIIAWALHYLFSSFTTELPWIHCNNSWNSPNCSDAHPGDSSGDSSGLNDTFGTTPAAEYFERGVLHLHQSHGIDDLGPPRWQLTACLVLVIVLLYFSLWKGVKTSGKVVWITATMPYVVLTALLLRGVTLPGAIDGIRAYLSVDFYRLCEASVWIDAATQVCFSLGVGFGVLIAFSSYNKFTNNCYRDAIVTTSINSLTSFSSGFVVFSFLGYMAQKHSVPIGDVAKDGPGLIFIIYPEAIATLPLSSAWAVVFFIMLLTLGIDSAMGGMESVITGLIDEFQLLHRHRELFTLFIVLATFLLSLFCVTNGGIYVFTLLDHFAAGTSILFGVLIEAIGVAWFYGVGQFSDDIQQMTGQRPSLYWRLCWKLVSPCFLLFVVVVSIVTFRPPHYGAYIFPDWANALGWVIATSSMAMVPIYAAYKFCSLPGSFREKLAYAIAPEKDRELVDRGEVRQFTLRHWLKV

[3] = target: Sodium-dependent noradrenaline transporter (Homo sapiens, UniProt P23975)
Sodium-dependent noradrenaline transporter, sequence (P23975 whole entry): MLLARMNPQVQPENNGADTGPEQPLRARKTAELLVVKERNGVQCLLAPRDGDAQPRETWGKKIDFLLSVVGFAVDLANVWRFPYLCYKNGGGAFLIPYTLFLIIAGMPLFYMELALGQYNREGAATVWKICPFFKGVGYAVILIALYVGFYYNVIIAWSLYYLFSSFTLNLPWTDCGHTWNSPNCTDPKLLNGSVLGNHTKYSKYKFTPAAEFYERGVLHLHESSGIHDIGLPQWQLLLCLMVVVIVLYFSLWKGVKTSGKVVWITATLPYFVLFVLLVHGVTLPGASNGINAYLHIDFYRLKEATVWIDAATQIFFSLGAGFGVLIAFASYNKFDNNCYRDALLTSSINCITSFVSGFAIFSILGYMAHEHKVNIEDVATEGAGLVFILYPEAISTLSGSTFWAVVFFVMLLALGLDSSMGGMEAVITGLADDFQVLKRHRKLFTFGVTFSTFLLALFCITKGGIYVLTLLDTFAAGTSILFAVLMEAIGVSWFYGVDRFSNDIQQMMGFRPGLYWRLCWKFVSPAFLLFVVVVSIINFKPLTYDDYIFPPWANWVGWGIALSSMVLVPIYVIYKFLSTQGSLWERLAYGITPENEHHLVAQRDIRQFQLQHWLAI
Description: Inhibition of norepinephrine uptake at human NET expressed in MDCK-Net6 cells

[4] = target: T1, Sodium-dependent serotonin transporter; test: Inhibition of serotonin uptake at human SERT expressed in human JAR at 1 uM
Target sequence in this assay (P31645 whole entry, looked up): as the sequence (P31645 whole entry) above

[5] = Half life in rat liver microsomes at 1 uM
[6] = target: T1, Sodium-dependent serotonin transporter; test: Inhibition of serotonin uptake at human SERT expressed in human JAR at 6 uM
Target sequence in this assay (P31645 whole entry, looked up): as the sequence (P31645 whole entry) above

Rattus norvegicus [7] = test: Thermoregulatory activity in OVX-induced thermoregulatory dysfunction Sprague-Dawley rat model assessed as mean reduction in tail-skin temperature at 3 mg/kg, po by implanted temperature and physical activity transmitter; assay type: functional
Rattus norvegicus [8] = test: Thermoregulatory activity in OVX-induced thermoregulatory dysfunction Sprague-Dawley rat model assessed as maximum reduction in tail-skin temperature at 3 mg/kg, po by implanted temperature and physical activity transmitter; assay type: functional
[9] = target: T2, Sodium-dependent dopamine transporter; test: Displacement of [3H]WIN-35428 from human recombinant DAT expressed in CHO cells at 10 uM; assay type: cell-based
[10] = target: T2, Sodium-dependent dopamine transporter; test: biochemical
Rattus norvegicus [11] = test: Duration of thermoregulatory activity in OVX-induced thermoregulatory dysfunction Sprague-Dawley rat model at 3 mg/kg, po by implanted temperature and physical activity transmitter; assay type: functional

Structure (SMILES) | IC50 [1] [nM] | IC50 [3] [nM] | half-life at 1 µM [5] [min] | other results
CNCCCN1Cc2cc(F)ccc2N(c2ccccc2F)S1(=O)=O | 1500 | – | – | inhibition [2]: 2.5%
CNCCCCN1Cc2cc(F)ccc2N(c2ccccc2F)S1(=O)=O | 110 | – | – | inhibition [2]: 25%
CNCCCCN1Cc2ccccc2N(c2ccccc2F)S1(=O)=O | 2000 | – | – | inhibition [2]: 18%
CNCCN1Cc2cc(F)ccc2N(c2ccccc2F)S1(=O)=O | 13300 | – | – | inhibition [2]: -5%
CNCCCN1Cc2ccccc2N(c2ccc(C)cc2)S1(=O)=O | – | 140 | – | –
CNCCCN1Cc2ccccc2N(c2ccccc2)S1(=O)=O | 6000 | – | – | inhibition [2]: 17%
CNCCCN1Cc2ccccc2N(c2ccccc2F)S1(=O)=O | 5500 | – | – | inhibition [2]: -7%
CNCCN1Cc2ccccc2N(c2ccccc2F)S1(=O)=O | – | – | – | inhibition [2]: 24%; inhibition [4]: 24%
CNCCCC1Cc2cc(F)ccc2N(c2c(F)cccc2F)S1(=O)=O (single isomer, unassigned) [listing 1 of 2 here] | – | 25 | > 30 | –
CNCCCC1Cc2cc(F)ccc2N(c2c(F)cccc2F)S1(=O)=O (single isomer, unassigned) [listing 2 of 2 here] | – | – | – | inhibition [6]: 82%
CNCCCC1Cc2ccccc2N(c2c(F)cccc2F)S1(=O)=O (single isomer, unassigned; 16e) [listing 1 of 2 here] | – | 52 | 3 | –
CNCCCC1Cc2ccccc2N(c2c(F)cccc2F)S1(=O)=O (single isomer, unassigned; 16e) [listing 2 of 2 here] | – | – | – | inhibition [6]: 40%
CNCCCC1Cc2ccccc2N(c2c(F)cccc2F)S1(=O)=O.Cl (single isomer, unassigned; 16f) | 8000 | 5 | 4 | Activity (Rattus norvegicus [7]): 0 °C; Activity (Rattus norvegicus [8]): 0 °C
CNCCCC1Cc2ccccc2N(c2c(F)cccc2F)S1(=O)=O (single isomer, unassigned; 16f) | – | – | – | inhibition [9]: 3.8%
CNCCCC1Cc2ccccc2N(c2ccccc2)S1(=O)=O (single isomer, unassigned; enantiomer I) | 6900 | 88 | 3 | –
CNCCCC1Cc2ccccc2N(c2ccccc2F)S1(=O)=O (single isomer, unassigned; enantiomer I) [listing 1 of 2 here] | – | 55 | < 1 | –
CNCCCC1Cc2cc(F)ccc2N(c2ccccc2F)S1(=O)=O (single isomer, unassigned; enantiomer I) | 720 | 93 | > 30 | –
CNCCCC1Cc2cc(F)ccc2N(c2ccccc2)S1(=O)=O (single isomer, unassigned; enantiomer I) | – | – | – | inhibition [6]: 85%
CNCCCC1Cc2ccccc2N(c2ccccc2F)S1(=O)=O (single isomer, unassigned; enantiomer I) [listing 2 of 2 here] | – | – | – | inhibition [6]: 11%; inhibition [9]: 21%
CNCCCC1Cc2ccccc2N(c2ccccc2)S1(=O)=O.Cl (single isomer, unassigned; enantiomer II) | 2500 | 12 | < 1 | IC50 [10]: 6600 nM
CNCCCC1Cc2ccccc2N(c2ccccc2F)S1(=O)=O.Cl (single isomer, unassigned; enantiomer II) | – | 3 | < 1 | –
CNCCCC1Cc2cc(F)ccc2N(c2ccccc2)S1(=O)=O (single isomer, unassigned; enantiomer II) | 240 | – | – | IC50 [10]: 4000 nM
CNCCCC1Cc2cc(F)ccc2N(c2ccccc2F)S1(=O)=O.Cl (single isomer, unassigned; enantiomer II) | 340 | 11 | > 30 | Activity (Rattus norvegicus [7]): 1.5 °C; Activity (Rattus norvegicus [11]): 6 h; Activity (Rattus norvegicus [8]): 2.4 °C
CNCCCC1Cc2cc(F)ccc2N(c2c(F)cccc2F)S1(=O)=O.Cl (single isomer, unassigned; enantiomer II) | 600 | 27 | > 30 | –
CNCCCC1Cc2cc(F)ccc2N(c2ccccc2F)S1(=O)=O (single isomer, unassigned; enantiomer II) | – | – | – | inhibition [9]: 50%
CNCCCC1Cc2ccccc2N(c2ccccc2F)S1(=O)=O (single isomer, unassigned; enantiomer II) | – | – | – | inhibition [6]: 74%; inhibition [9]: 23%
